Assay results published in US20260097047A1, “Small molecule inhibitors of the ribosome biogenesis factor NVL2” (Board of Regents, The University of Texas System, priority 2023, published 2026).

test system: HCT116 cells; test: Cell viability assay (CellTiter-Glo, 72 hours) in HCT116 human colorectal cancer cells; type: cell-based; conditions: Homo sapiens, HCT-116; Table 5; HCT116, 72 hours; read-out: Activity
In short: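 2,000 cells/well adhered overnight, then compound added by digital dispenser with DMSO normalized to 0.5%. Viability read after 72 h at 37 °C by ATP-based CellTiter-Glo luminescence. IC50 from ten-point curves baseline-corrected to vehicle, five-parameter asymmetric least-squares fit.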

IC50 [nM]	Structure (SMILES)
< 500	CC#CCN1C(=O)c2ccc(C#N)cc2Sc2cc(Nc3nccc(C#N)c3C)ccc21 [10-(But-2-yn-1-yl)-7-((4-cyano-3-methylpyridin-2-yl)amino)-11-oxo-10,11-dihydrodibenzo[b,f][1,4]thiazepine-3-carbonitrile]
500 to 1000	CCC/C=C/CN1C(=O)c2ccccc2Sc2cc(Nc3ccccn3)ccc21 [(E)-10-(Hex-2-en-1-yl)-7-(pyridin-2-ylamino)dibenzo[b,f][1,4]thiazepin-11 (10H)-one]
< 500	CC#CCN1C(=O)c2ccccc2Sc2cc(Nc3nccc(C#N)c3F)ccc21 [2-((10-(But-2-yn-1-yl)-11-oxo-10,11-dihydrodibenzo[b,f][1,4]thiazepin-7-yl)amino)-3-fluoroisonicotinonitrile]
< 500	CC#CCN1C(=O)c2ccc(F)cc2Sc2cc(Nc3nccnc3C)ccc21 [10-(But-2-yn-1-yl)-3-fluoro-7-((3-methylpyrazin-2-yl)amino)dibenzo[b,f][1,4]thiazepin-11 (10H)-one]
< 500	CC#CCN1C(=O)c2ccccc2Sc2cc(Nc3ncc(C)nc3C)ccc21 [10-(But-2-yn-1-yl)-7-((3,5-dimethylpyrazin-2-yl)amino)dibenzo[b,f][1,4]thiazepin-11 (10H)-one]
< 500	CCC/C=C/CN1C(=O)c2ccccc2Sc2cc(Nc3cc(OC)ccn3)ccc21 [(E)-10-(Hex-2-en-1-yl)-7-((4-methoxypyridin-2-yl)amino)dibenzo[b,f][1,4]thiazepin-11 (10H)-one]
500 to 1000	CCC/C=C/CN1C(=O)c2ccccc2Sc2cc(Nc3ncccc3OC)ccc21 [(E)-10-(Hex-2-en-1-yl)-7-((3-methoxypyridin-2-yl)amino)dibenzo[b,f][1,4]thiazepin-11 (10H)-one]
< 500	CC#CCN1C(=O)c2ccccc2Sc2cc(Nc3ccccn3)ccc21 [10-(But-2-yn-1-yl)-7-(pyridin-2-ylamino)dibenzo[b,f][1,4]thiazepin-11 (10H)-one]
500 to 1000	CCC/C=C/CN1C(=O)c2ccccc2Sc2cc(Nc3cc(C)ccn3)ccc21 [(E)-10-(Hex-2-en-1-yl)-7-((4-methylpyridin-2-yl)amino)dibenzo[b,f][1,4]thiazepin-11 (10H)-one]

same assay, conditions: Homo sapiens, HCT-116; Table 6; HCT116, 72 hours; read-out: Activity

IC50 [nM]	Structure (SMILES)
< 500	CC#CCN1C(=O)c2ccccc2Sc2cc(NC3CCCC3)ccc21 [Table 6: —CH2CCMe; cPent; CH/CH; S, 10-(But-2-yn-1-yl)-7-(cyclopentylamino)dibenzo[b,f][1,4]thiazepin-11 (10H)-one]
< 500	CC#CCN1C(=O)c2ccccc2Sc2cc(NC3CC(CO)C3)ccc21 (stereo not shown) [Table 6: —CH2CCMe; 3-HOCH2-cBu; CH/CH; S, 10-(But-2-yn-1-yl)-7-((3-(hydroxymethyl)cyclobutyl)amino)dibenzo[b,f][1,4]thiazepin-11 (10H)-one]
< 500	CC#CCN1C(=O)c2ccccc2Sc2cc(NCC3(C)COC3)ccc21 [10-(But-2-yn-1-yl)-7-(((3-methyloxetan-3-yl)methyl)amino)dibenzo[b,f][1,4]thiazepin-11 (10H)-one]

same assay, conditions: Table 3; HCT116, 72 hours; read-out: Activity

IC50 [nM]	Structure (SMILES)
< 500	CC#CCN1C(=O)c2ccccc2Sc2cc(NC(=O)NC3CC(COC)C3)ccc21 (stereo not shown) [Table 3: —CH2CCMe; 3-MeOCH2-cBu; CH/CH]

same assay, conditions: Table 4; HCT116, 72 hours; read-out: Activity

IC50 [nM]	Structure (SMILES)
< 500	CC#CCN1C(=O)c2ccccc2Sc2cc(NC(=S)N[C@H]3C[C@H](OC)C3)cnc21 [Table 4: —CH2CCMe; trans-3-MeOcBu; N]

same assay, conditions: Table 5; HCT116, 72 hours; read-out: Activity

Structure (SMILES)	IC50 [nM]
Cc1cnc(Nc2cnc3c(c2)Sc2ccccc2C(=O)N3CC#CCl)c(C)n1	< 500
CC#CCN1C(=O)c2ccccc2Sc2cc(Nc3cc(C)cnn3)cnc21	< 500
CC=CCN1C(=O)c2ccccc2Sc2cc(Nc3ncccc3C#N)cnc21	< 500
CC=CCN1C(=O)c2ccccc2Sc2cc(Nc3nccnc3C)cnc21	< 500
CCC/C=C/CN1C(=O)c2ccccc2Sc2cc(Nc3cc(C(F)(F)F)ccn3)ccc21 [(I)-10-(Hex-2-en-1-yl)-7-((4-(trifluoromethyl)pyridin-2-yl)amino)dibenzo[b,f][1,4]thiazepin-11 (10H)-one]	1000 to 5000
CC=CCN1C(=O)c2ccccc2Sc2cc(Nc3ncc(C)cc3C)ccc21	< 500
CC#CCN1C(=O)c2ccccc2Sc2cc(Nc3cccnn3)cnc21	< 500
CC#CCN1C(=O)c2ccccc2Sc2cc(Nc3nccc(C#N)c3C)cnc21	< 500

same assay, conditions: Table 6; HCT116, 72 hours; read-out: Activity

IC50 [nM]	Structure (SMILES)
< 500	CC#CCN1C(=O)c2ccccc2Cc2cc(NC3CC(O)C3)ccc21 (stereo not shown) [Table 6: —CH2CCMe; 3-HOcBu; CH/CH; CH2]
< 500	O=C1c2ccccc2Sc2cc(NC3COC3)ccc2N1CC#CCl [Table 6: —CH2CCCl; oxetan-3-yl; CH/CH; S]
< 500	O=C1c2ccccc2Sc2cc(NC3CC(O)C3)cnc2N1CC#CCl (stereo not shown) [Table 6: —CH2CCCl; 3-HOcBu; CH/N; S]
< 500	CC#CCN1C(=O)c2ccccc2Sc2cc(NC3CC(O)C3)cnc21 (stereo not shown) [Table 6: —CH2CCMe; 3-HOcBu; CH/N; S]

same assay, conditions: Table 7; cell viability assay, CellTiter-Glo, 72 hours; scaffold drawing 42 with R^2, R^3, X/Y, Z; read-out: Activity

IC50 [nM]	Structure (SMILES)
< 500	COCCN1C(=O)c2ccccc2Sc2cc(NC(=O)c3ccc4ocnc4c3)ccc21
< 500	CC=CCN1C(=O)c2ccccc2Sc2cc(NC(=O)c3ccc4scnc4c3)ccc21
1000 to 5000	CNC(=O)c1cccc(C(=O)Nc2ccc3c(c2)Sc2ccccc2C(=O)N3CCOC)c1 [—(CH2)2OMe; 3-MeNHC(O)Ph; CH/CH; S]
1000 to 5000	COCCN1C(=O)c2ccccc2Sc2cc(NC(=O)c3ccc(OC)cc3C)ccc21 [—(CH2)2OMe; 2-Me,4-MeOPh; CH/CH; S]
< 500	C#CCOCCN1C(=O)c2ccccc2Sc2cc(NC(=O)c3ccc(OC)cc3)ccc21 [—(CH2)2OCH2CCH; 4-MeOPh; CH/CH; S]
< 500	COCCN1C(=O)c2cc(F)ccc2Sc2cc(NC(=O)c3ccoc3)ccc21 [—(CH2)2OMe; furan-3-yl; CH/CF; S]
500 to 1000	COCCN1C(=O)c2ccccc2Sc2cc(NC(=O)c3ccc(F)c(OC)c3)ccc21 [—(CH2)2OMe; 3-MeO,4-FPh; CH/CH; S]

same assay, conditions: Table 8; analogs of scaffold drawing 43 defined by R^2, R^3, X/Y, W; read-out: Activity (IC50 class, cell viability assay)

IC50 [nM]	Structure (SMILES)
< 500	CC#CCN1C(=O)c2cc(F)ccc2Sc2cc(NC(=O)C=CCO)ccc21 [—CH2CCMe; CH═CHCH2OH; CH/CF; CH]
< 500	COCC1CC(C(=O)Nc2cnc3c(c2)Sc2ccccc2C(=O)N3CC#CC(F)(F)F)C1 (stereo not shown) [—CH2CCCF3; 3-MeOCH2-cBu; CH/CH; N]
< 500	CC#CCN1C(=O)c2cc(F)ccc2Sc2cc(NC(=O)C3CC4(CC(O)C4)C3)cnc21 (stereo not shown)
< 500	CC#CCN1C(=O)c2ccccc2Sc2cc(NC(=O)OCCOC)ccc21 [—CH2CCMe; O(CH2)2OMe; CH/CH; CH]
< 500	CC12CC(C(=O)Nc3cnc4c(c3)Sc3ccccc3C(=O)N4CC#CC3CC3)(C1)C2
< 500	CC#CCN1C(=O)c2ccccc2Sc2cc(NC(=O)CCCO)cnc21 [—CH2CCMe; (CH2)3 OH; CH/CH; N]
< 500	C#CCN1C(=O)c2cc(F)ccc2Sc2cc(NC(=O)C3CC4(CC(=NO)C4)C3)ccc21 (stereo not shown)
< 500	O=C(CC1COC1)Nc1ccc2c(c1)Sc1ccccc1C(=O)N2CC#CC1CC1 [—CH2CC^cPr; (oxetan-3-yl)CH2; CH/CH; CH]
< 500	C#CCN1C(=O)c2ccc(Cl)cc2Sc2cc(NC(=O)[C@@H]3C[C@H]3CO)ccc21 (relative stereo) [—CH2CCH; trans-2-HOCH2-cPr; CCI/CH; CH]
500 to 1000	CC#CCN1C(=O)c2ccccc2Sc2cc(NC(=O)C#CCOC)ccc21 [—CH2CCMe; CCCH2OMe; CH/CH; CH]
< 500	CC#CCN1C(=O)c2ccccc2Sc2cc(NC(=O)NCCOC)ccc21 [—CH2CCMe; NH(CH2)2OMe; CH/CH; CH]
1000 to 5000	CC#CCN1C(=O)c2ccccc2Sc2cc(NC(=O)C3CCN(C)C3)ccc21 (stereo not shown)
< 500	CC#CCN1C(=O)c2ccc(Cl)cc2Sc2cc(NC(=O)C3CC4(CC(=O)C4)C3)ccc21
< 500	CC#CCN1C(=O)c2cc(F)ccc2Sc2cc(NC(=O)[C@H]3C[C@H](OC)C3)cnc21 [—CH2CCMe; trans-3-MeOcBu; CH/CF; N]
< 500	COCCCC(=O)Nc1cnc2c(c1)Sc1ccccc1C(=O)N2CC#CC1CC1 [—CH2CC^cPr; (CH2)3OMe; CH/CH; N]

Structure (SMILES)	IC50 [nM]
CC#CCN1C(=O)c2cc(F)ccc2Sc2cc(NC(=O)C3CCCO3)cnc21 (stereo not shown) [—CH2CCMe; tetrahydrofuran-2-yl; CH/CF; N]	< 500
CC#CCN1C(=O)c2cc(F)ccc2Sc2cc(NC(=O)C3CCCO3)ccc21 (stereo not shown)	< 500
CC#CCN1C(=O)c2ccc(F)cc2Sc2cc(NC(=O)C3CCCO3)cnc21 (stereo not shown) [—CH2CCMe; tetrahydrofuran-2-yl; CF/CH; N]	< 500

same assay, conditions: Table 9; HCT116, 72 hours; read-out: Activity

IC50 [nM]	Structure (SMILES)
< 500	COCC1CC(C(=O)Nc2ccc3c(c2)C(C)(O)c2ccccc2C(=O)N3CC#CC2CC2)C1 (stereo not shown) [Table 9: —CH2CCcPr; 3-MeOCH2-cBu; CMeOH]
< 500	CO[C@H]1C[C@H](C(=O)Nc2ccc3c(c2)Cc2ccccc2C(=O)N3CC#CC2CC2)C1 [Table 9: —CH2CCCPr; trans-3-MeOcBu; CH2]
< 500	CO[C@H]1C[C@@H](C(=O)Nc2ccc3c(c2)C(C)(O)c2ccccc2C(=O)N3CC#CC2CC2)C1 (stereo partly drawn) [Table 9: —CH2CCcPr; cis-3-MeOcBu; CMeOH]
< 500	COC1CC(C(=O)Nc2ccc3c(c2)C(C#N)c2ccccc2C(=O)N3CC#CC2CC2)C1 (stereo not drawn) [Table 9: —CH2CC°Pr; trans-3-MeOcBu; CHCN]
< 500	CC#CCN1C(=O)c2ccccc2C(C)c2cc(NC(=O)[C@@H]3C[C@H]3C(=O)OC)ccc21 (relative stereo)
< 500	CC1c2ccccc2C(=O)N(CC#CC2CC2)c2ccc(NC(=O)C3CC(O)C3)cc21 (stereo not drawn) [Table 9: —CH2CC^cPr; cis-3-OH-cBu; CHMe]

same assay, conditions: cell viability assay; Table 10 analogs of scaffold drawing 45 defined by R2, R3, X/Y, W; read-out: Activity

IC50 [nM]	Structure (SMILES)
< 500	CC#CCN1C(=O)c2ccc(Cl)cc2Sc2cc(NC(=O)C3CC4(CC(O)C4)C3)ccc21 (stereo not shown)
